Legend:
[1] = molecular target: T1, Glycine receptor (alpha-1/beta) (Homo sapiens, UniProt P23415+P48167); assay: Antagonist activity at human glycine receptor subunit alpha-1beta expressed in human tsA201 cells assessed as reduction in glycine-induced response incubated for 30 mins by fluorescence-based FLIPR membrane potential blue assay; type: cell-based; conditions: read-out: IC50
[2] = molecular target: T2, Glycine receptor subunit alpha-1 (Homo sapiens, UniProt P23415); assay: Antagonist activity at human glycine receptor subunit alpha-1 assessed as inhibition of glycine-induced current measured at the onset of compound application by patch-clamp assay
T2 sequence (P23415 whole entry): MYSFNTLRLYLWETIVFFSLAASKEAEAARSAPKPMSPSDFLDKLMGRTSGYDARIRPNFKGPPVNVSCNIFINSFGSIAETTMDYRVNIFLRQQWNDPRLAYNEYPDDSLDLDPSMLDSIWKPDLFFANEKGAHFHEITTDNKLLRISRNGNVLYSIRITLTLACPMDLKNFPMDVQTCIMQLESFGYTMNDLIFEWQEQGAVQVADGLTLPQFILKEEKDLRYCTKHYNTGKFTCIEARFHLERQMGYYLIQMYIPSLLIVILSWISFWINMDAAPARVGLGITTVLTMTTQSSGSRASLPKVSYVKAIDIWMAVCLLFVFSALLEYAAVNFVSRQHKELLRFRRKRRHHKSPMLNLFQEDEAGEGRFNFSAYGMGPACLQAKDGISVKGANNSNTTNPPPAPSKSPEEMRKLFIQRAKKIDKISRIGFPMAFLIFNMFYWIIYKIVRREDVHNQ

[3] = molecular target: T2, Glycine receptor subunit alpha-1; assay: Antagonist activity at human glycine receptor subunit alpha-1 expressed in HEK293 cells assessed as reduction in glycine-induced currents by whole-cell patch-clamp assay; type: cell-based
[4] = molecular target: T2, Glycine receptor subunit alpha-1; assay: Displacement of [3H]strychnine from human glycine receptor subunit alpha-1 expressed in HEK293 cell membranes preincubated for 30 mins followed by [3H]strychnine addition and measured after 30 mins by liquid scintillation counting method; set-up: species or system Membrane
[5] = molecular target: T2, Glycine receptor subunit alpha-1; assay: Antagonist activity at human glycine receptor subunit alpha-1 expressed in human tsA201 cells assessed as reduction in glycine-induced response incubated for 30 mins by fluorescence-based FLIPR membrane potential blue assay; type: cell-based; conditions: for IC50: read-out: IC50
[6] = molecular target: T2, Glycine receptor subunit alpha-1; assay: Antagonist activity at human glycine receptor subunit alpha-1 assessed as inhibition of glycine-induced current measured at the later state of compound application by patch-clamp assay
[7] = molecular target: T1, Glycine receptor (alpha-1/beta); assay: Antagonist activity at human glycine receptor subunit alpha-1beta expressed in HEK293 cells assessed as reduction in glycine-induced currents by whole-cell patch-clamp assay; type: cell-based

T1 sequence (P48167 whole entry, one chain of several): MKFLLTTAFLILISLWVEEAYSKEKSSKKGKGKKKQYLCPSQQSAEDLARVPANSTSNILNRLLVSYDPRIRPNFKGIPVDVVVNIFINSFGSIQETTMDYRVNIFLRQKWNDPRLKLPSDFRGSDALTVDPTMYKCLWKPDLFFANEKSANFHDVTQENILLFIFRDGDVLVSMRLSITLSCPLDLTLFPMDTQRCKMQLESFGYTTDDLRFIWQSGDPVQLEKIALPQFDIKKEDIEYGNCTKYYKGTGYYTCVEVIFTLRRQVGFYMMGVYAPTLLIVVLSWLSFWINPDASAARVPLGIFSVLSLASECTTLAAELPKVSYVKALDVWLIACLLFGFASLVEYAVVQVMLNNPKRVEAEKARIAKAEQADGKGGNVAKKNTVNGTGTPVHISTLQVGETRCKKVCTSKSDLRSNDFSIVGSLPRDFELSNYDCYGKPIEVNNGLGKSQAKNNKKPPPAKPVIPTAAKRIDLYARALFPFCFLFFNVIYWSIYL

Compound	IC50 ([1]; tsa201) [nM]	IC50 [2] [nM]	IC50 [3] [nM]	Ki [4] [nM]	pIC50 ([5]; tsa201)	IC50 [6] [nM]	IC50 [7] [nM]	IC50 [1] [nM]	IC50 [5] [nM]
O=C1C[C@@H]2OCC=C3CN4CC[C@]56c7ccccc7N1[C@H]5[C@H]2[C@H]3C[C@H]46 [STRYCHNINE]	510	134	50	5	6.82	27	60	–	–
O=C(CCCCCCC(=O)Nc1ccc2c(c1)[C@@]13CCN4CC5=CCO[C@H]6CC(=O)N2[C@H]1[C@H]6[C@H]5C[C@H]43)Nc1ccc2c(c1)[C@@]13CCN4CC5=CCO[C@H]6CC(=O)N2[C@H]1[C@H]6[C@H]5C[C@H]43	–	–	1100	–	–	–	1300	10000	6900
O=C(CCCCCCCCCCC(=O)Nc1ccc2c(c1)[C@@]13CCN4CC5=CCO[C@H]6CC(=O)N2[C@H]1[C@H]6[C@H]5C[C@H]43)Nc1ccc2c(c1)[C@@]13CCN4CC5=CCO[C@H]6CC(=O)N2[C@H]1[C@H]6[C@H]5C[C@H]43	–	–	720	–	–	–	800	1800	1100
